Results on one substance are retold here after patent publication US20070218456A1, “CELLULAR ASSAYS FOR SIGNALING RECEPTORS” (INVITROGEN CORPORATION, priority 2006, published 2007).

Like-named read-outs stand apart in the source and are kept apart here.

One assay relates to hGPR23. The assay can be described thus: LPA dose response on hGPR23-CRE-bla CHO-K1 selected pool. It counts as cell-based, human. Conditions: 5 hrs stimulation. The text has this: An attempt was made to develop a GPR23 assay by stably expressing a human GPR23 (hGPR23) in a CRE-bla CHO-K1 cell line. The CRE-bla CHO-K1 cell line has a non-GPR23 specific endogenous response to LPA (see Example 18), but by adding the human GPR23 to the cells it could have been possible to increase the LPA responsiveness of these cells or create a constitutively active cell line that could be used to screen for inverse agonists of the hGPR23 receptor. The hGPR23 expression plasmid was transfected into the CRE-bla CHO-K1 cell line. Lipofectamine 2000 (Invitrogen) was used at a ratio of 0.4 ug of DNA per every uL of Lipofectamine 2000 following manufacturer's directions.
(§1) A stable pool was selected using Zeocin. LPA dose response on the hGPR23-CRE-bla CHO-K1 selected pool and CRE-bla CHO-K1 cell line was performed. The cells were plated at 50,000 cells per well in a 96 well assay plate in OptiMEM+0.5% FBS and placed at 37° C. 5% CO2 overnight. The cells were then stimulated with a four fold dilution series of LPA in DMEM+0.1% BSA for 5 hrs. and loaded with substrate for 2 hrs.

A further assay concerns CRE-bla CHO-K1 cell line. Kind of assay: LPA dose response on CRE-bla CHO-K1 cell line. It counts as cell-based, Chinese hamster. The note with it: CRE-bla CHO cells; 5 hrs stimulation. The procedure: as §1
Assay [1] has as its system GPR23. The assay can be described thus: Perkin Elmer LANCE cAMP assay on T-REx-GPR23-CHO-K1 clones. The assay is classed as cell-based, human. The note with it: un-induced, read-out: LPA EC50 (cAMP). The procedure: (§2) Two inducible T-RExTM-GPR23-CHO-K1 clones and a parental control (T-RExTM-CHO-K1) were tested using the Perkin Elmer LANCE cAMP assay. The cells were serum starved and induced in growth medium +/-1 μg/ml tetracycline +100 ng/ml pertussis toxin without FBS for 24 hrs prior to the assay. The cells were then harvested using […] assayed for LPA responsiveness using the Perkin Elmer Lance assay according to the manufacture's instructions.

For a further assay, the system named is T-REx™-CHO-K1. The assay can be described thus: Perkin Elmer LANCE cAMP assay on parental T-REx-CHO-K1. Conditions: read-out: LPA EC50 (cAMP). The assay is classed as cell-based, Chinese hamster. The procedure: as §2
The subject of assay [2] is NFAT and CRE CHO-K1 cell lines. Kind of assay: Transient transfection assay, NFAT-bla and CRE-bla CHO-K1, response to LPA. The assay is classed as cell-based, Chinese hamster. Conditions: 10 μM LPA; absence of transfected GPR23. The text has this:
(§3) To begin development of a GPR23 assay in GeneBLAzer® CellSensor™ cell lines (Invitrogen), GPR23 was first tested in a transient transfection assay in the NFAT-bla HEK (Catalog# K1179, Invitrogen), the CRE-bla HEK (Catalog# K1112, Invitrogen), the NFAT-bla CHO-K1 (Catalog# K1078, Invitrogen), the CRE-bla CHO-K1 (Catalog# K1129, Invitrogen), the NFAT-bla Jurkat CellSensor™ cell lines (Catalog# K1077, Invitrogen) and the CRE-bla Jurkat CellSensor™ cell lines (Catalog# K1134, Invitrogen). The hGPR23 expression plasmid was transfected into the cell lines. Lipofectamine 2000 (Invitrogen) was used at a ratio of 0.4 ug of DNA per every uL of Lipofectamine 2000 following manufacturer's directions. After 48 hours the cells were assayed for a response to 10 μM LPA.

A further assay concerns Jurkat cells. Kind of assay: Transient transfection assay, NFAT-bla and CRE-bla Jurkat, response to LPA. It counts as cell-based. Conditions: 10 μM LPA.
From the text: as §3

The subject of the next assay is HEK cells. Kind of assay: Transient transfection assay, NFAT-bla and CRE-bla HEK, response to LPA. The note with it: 10 μM LPA. It counts as cell-based, human.
From the text: as §3

The test system of assay [3] is GPR23. The assay can be described thus: LPA responsiveness of T-REx-GPR23 CRE-bla-CHO-K1 clone H6-E2. Conditions: un-induced cells. It counts as cell-based, human. Here is the method:
(§4) The cells were plated at 20,000 cells per well in a 384 well black walled clear bottom tissue culture assay plate in complete media (DMEM+10% FBS). The plates were then placed at 37° C. 5% CO2 for 6 hrs to allow the cells to attach to the assay plate. The complete media was then removed from the plate and replaced with assay media (DMEM+0.1% BSA) containing 100 ng/ml pertussis toxin and 0.5% DMSO, with or without 10 μg/ml doxycycline. The plates were placed at 37° C. 5% CO2 for 16 hrs to allow the induced expression of the GPR23 receptor. The cells were then stimulated for five hours with a four fold dilution series of LPA starting at 1 μM. The cells were then loaded with LiveBLAzer™-FRET B/G substrate (2 μM) containing solution D for 2 hrs.

The target of assay [4] is T1, GPR23 (Homo sapiens, UniProt Q99677). Kind of assay: LPA response of stably transfected GPR23-CRE-bla HEK pool. It counts as cell-based. Also on record: expressed in transfected cells; host or cells: CellSensor CRE-bla HEK (Invitrogen K1112), stably selected pool. The procedure: Assay construction continued in the NFAT-bla and CRE-bla, HEK and Jurkat CellSensor™ cell lines. These cell lines were taken to the point of stably selected pools at which point they were tested for a response to LPA. Only the stably transfected GPR23-CRE-bla HEK pool gave a response to LPA. The response was <1.5 fold but reproducible.

In assay [5] the target is T1, GPR23. The assay can be described thus: Perkin Elmer LANCE cAMP assay on T-REx-GPR23-CHO-K1 clones. The assay is classed as cell-based. Also on record: expressed in transfected cells; host or cells: CHO-K1 with tet repressor (T-REx); clones E1 and H6, later CRE-bla subclone H6-E2. The note with it: read-out: LPA EC50 (cAMP). Here is the method:
as §2

In assay [6] the target is T1, GPR23. The assay can be described thus: LPA responsiveness of T-REx-GPR23 CRE-bla-CHO-K1 clone H6-E2. It counts as cell-based. On the set-up: expressed in transfected cells; host or cells: CHO-K1 with tet repressor (T-REx); clones E1 and H6, later CRE-bla subclone H6-E2. The procedure:
as §4

T1 sequence (Q99677 whole entry): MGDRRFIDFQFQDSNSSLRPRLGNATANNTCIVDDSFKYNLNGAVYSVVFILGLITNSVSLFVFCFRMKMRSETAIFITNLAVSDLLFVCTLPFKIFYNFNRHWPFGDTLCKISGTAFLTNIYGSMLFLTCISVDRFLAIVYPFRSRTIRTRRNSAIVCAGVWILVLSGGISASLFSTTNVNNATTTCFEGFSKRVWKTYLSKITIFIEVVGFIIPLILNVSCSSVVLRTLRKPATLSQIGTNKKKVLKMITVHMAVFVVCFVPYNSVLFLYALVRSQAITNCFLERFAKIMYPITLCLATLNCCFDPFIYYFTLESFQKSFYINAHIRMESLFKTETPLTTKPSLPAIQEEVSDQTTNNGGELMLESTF

With “1 or 2-acyl-sn-glycero-3-phosphate [LPA]”, the EC50 with hGPR23 was 0.258 µM; in the assay on CRE-bla CHO-K1 cell line it was 0.239 µM; with GPR23 [1] (E1 clone) it was 2 µM; in the assay on GPR23 [1] (H6 clone) it was 1.5 µM; in the assay with T-REx™-CHO-K1 (parent induced (1 μg/ml tetracycline)) it was 0.915 µM; in the assay on T-REx™-CHO-K1 (parent, un-induced), 5 µM. Further, the half-maximal effective concentration (EC50) turned out to be 0.0303 µM at GPR23 [5] (E1 clone induced (1 μg/ml tetracycline)); 0.0138 µM at GPR23 [5] (H6 induced (1 μg/ml tetracycline)); 0.0023 µM at GPR23 [6] (induced cells (10 μg/ml doxycycline, 16 hrs), LPA five hours). Besides, the “response to LPA” value in [2] was “positive response”; in the assay on Jurkat cells (GPR23 transfected cells) it was “no response”; in the assay on Jurkat cells (endogenous (untransfected)), “no endogenous response”; with HEK cells (GPR23 transfected CRE-bla HEK cell line) it was “only a small response”; in the assay on HEK cells (endogenous (untransfected)) it was “no endogenous response”; on GPR23 [4] it was less than 1.5 fold. The “response of the cells to LPA” value in the assay with GPR23 [3] worked out at 9 fold; at GPR23 [6] (induced cells), 2.3 fold.
